ChEMBL document CHEMBL1130902, “Novel angucycline compound with both antigastrin- and gastric mucosal protective-activities” (1998)

Legend:
Assay type in all cases: functional
[1] = test system: Rattus norvegicus; assay: Dose required to prevent lesion formation in gastric mucosa of unanesthetized rats upon subcutaneous administration.
[2] = test system: Rattus norvegicus; assay: Percentage dose required to prevent lesion formation in gastric mucosa of unanesthetized rats upon intraperitoneal administration of 10 mg/kg dose in the HCl/ethanol-induced lesion model; settings: ip
[3] = test system: Rattus norvegicus; assay: Percentage dose required to prevent lesion formation in gastric mucosa of unanesthetized rats upon intraperitoneal administration of 3 mg/kg dose in the HCl/ethanol-induced lesion model; settings: ip
[4] = test system: Rattus norvegicus; assay: Percentage dose required to prevent lesion formation in gastric mucosa of unanesthetized rats upon intraperitoneal administration of 1 mg/kg dose in the HCl/ethanol-induced lesion model; settings: ip
[5] = test system: Rattus norvegicus; assay: Percent inhibition against pentagastrin-stimulated acid secretion upon intraperitoneal administration of 10 mg/kg dose to urethane anesthetized rats.; settings: ip
[6] = test system: Rattus norvegicus; assay: Percentage dose required to prevent lesion formation in gastric mucosa of unanesthetized rats upon intraperitoneal administration 30 min prior to an oral dose of HCl/ethanol.

Structure (SMILES)	Dose [1]	inhibition in vivo at 10 mg/kg [2]	inhibition in vivo at 3 mg/kg [3]	inhibition in vivo at 1 mg/kg [4]	inhibition in vivo at 10 mg/kg [5]	% dose [6]
COc1ccc2c(c1)c(CC(=O)O)c(C)n2C(=O)c1ccc(Cl)cc1 [INDOMETHACIN]	25 mg/kg	72.8%	64.9%	57%	–	–
CO[C@@H]1C[C@H](O[C@@H]2C=C(C)C[C@@]3(O)[C@H](OC(C)=O)[C@H](O)C4=C(C(=O)c5ccc([C@H]6C[C@@H](O[C@H]7C[C@](C)(O)[C@H](O[C@H]8CC[C@H](NC(N)=O)[C@@H](C)O8)[C@@H](C)O7)[C@H](O)[C@@H](C)O6)c(O)c5C4=O)[C@@]23O)O[C@@H](C)[C@H]1O [COMPOUND P371 A]	–	83.6%	81.6%	52.6%	61%	60%
